From ChEMBL document CHEMBL2169825, “Development of selective, potent RabGGTase inhibitors” (J Med Chem, 2012)

Experiments:
[1] = Inhibition of RabGGTase using [3H]GGPP as substrate after 1 hr by scintillation proximity assay
[2] = tested on: A549; assay: Cytotoxicity against human A549 cells after 24 hrs by Alamar Blue assay; format: functional, cell-based; details: A549, 24 h
[3] = Inhibition of GGTase 1 using NBD-FPP as substrate after 10 mins by solution based fluorometric assay
[4] = tested on: DU-145; assay: Cytotoxicity against human DU145 cells after 24 hrs by Alamar Blue assay; format: functional, cell-based; details: DU-145, 24 h
[5] = tested on: HeLa; assay: Cytotoxicity against human HeLa cells after 24 hrs by Alamar Blue assay; format: functional, cell-based
[6] = tested on: HCT-116; assay: Cytotoxicity against human HCT116 cells after 24 hrs by Alamar Blue assay; format: functional, cell-based; details: HCT-116, 24 h
[7] = Inhibition of rat RabGGTase using [3H]GGPP as substrate after 30 mins by scintillation counter
[8] = Inhibition of FTase using NBD-GPP as substrate after 10 mins by solution based fluorometric assay
[9] = tested on: PBMC; assay: Cytotoxicity against human PBMC cells after 24 hrs by Alamar Blue assay; format: cell-based
[10] = Inhibition of RabGGTase using NBD-FPP as substrate after 5 mins by fluorometric assay
[11] = tested on: A2780; assay: Cytotoxicity against human A2780 cells after 24 hrs by Alamar Blue assay; format: functional, cell-based; details: A2780, 24 h
[12] = Inhibition of RabGGTase in human HeLa cells after 6 hrs by reprenylation assay; format: cell-based

Row | SMILES | IC50 [1] [nM] | IC50 [3] [nM] | IC50 [7] [nM] | IC50 [8] [nM] | IC50 [10] [nM] | IC50 [12] [nM] | IC50 [2] [nM] | IC50 [4] [nM] | IC50 [5] [nM] | IC50 [6] [nM] | IC50 [9] [nM] | IC50 [11] [nM]
1 | COc1ccc(S(=O)(=O)N2Cc3cc(C#N)ccc3N(Cc3cncn3C)C[C@H]2Cc2ccccc2)cc1 | 6.4 | > 99500 | 21 | 6 | 724 | 74 | 99 | 70 | 101 | 63 | > 10000 | 43
2 | COc1ccc(S(=O)(=O)N2Cc3cc(-c4ccnc(OC)c4)ccc3N(Cc3cncn3C)C[C@H]2Cc2ccc(-c3cccnc3)cc2)cc1 | 121 | > 99500 | – | 79 | – | 300 | – | – | – | – | – | –
3 | CCCCCCNC(=O)c1ccc2c(c1)CN(S(=O)(=O)c1ccc(OC)cc1)[C@H](Cc1ccc(O)cc1)CN2Cc1cncn1C | 70.5 | > 99500 | – | 20.7 | – | 3890 | – | – | – | – | – | –
4 | COc1ccc(S(=O)(=O)N2Cc3cc(Nc4ccccc4)ccc3N(Cc3cncn3C)C[C@H]2Cc2ccc(O)cc2)cc1 | 246 | > 99500 | – | 454 | – | – | – | – | – | – | – | –
5 | COc1ccc(S(=O)(=O)N2Cc3cc(-c4ccc(C=O)o4)ccc3N(Cc3cncn3C)C[C@H]2Cc2ccc(OS(=O)(=O)C(F)(F)F)cc2)cc1 | 4290 | > 99500 | – | > 9700 | – | – | – | – | – | – | – | –
6 | COc1ccc(S(=O)(=O)N2Cc3cc(-c4ccc(C#N)o4)ccc3N(Cc3cncn3C)C[C@H]2Cc2ccc(OC(=O)NCc3ccccc3)cc2)cc1 | 260 | > 99500 | – | > 9700 | 41.6 | 49 | – | – | 101 | 35 | > 10000 | 115
7 | COc1ccc(S(=O)(=O)N2Cc3cc(-c4ccc(C#N)o4)ccc3N(Cc3cncn3C)C[C@H]2Cc2ccc(OCc3ccccc3)cc2)cc1 | 577 | > 99500 | – | > 9700 | – | 213 | – | – | – | – | – | –
8 | COc1ccc(S(=O)(=O)N2Cc3cc(-c4ccc(C#N)o4)ccc3N(Cc3cncn3C)C[C@H]2Cc2ccc(Nc3ccccc3)cc2)cc1 | 1060 | > 99500 | – | 1210 | – | – | – | – | – | – | – | –
9 | COc1ccc(S(=O)(=O)N2Cc3cc(-c4ccnc(OC)c4)ccc3N(Cc3cncn3C)C[C@H]2Cc2ccc(OCc3ccccc3)cc2)cc1 | 5240 | > 99500 | – | 2560 | – | – | – | – | – | – | – | –
10 | COc1ccc(S(=O)(=O)N2Cc3cc(C#N)ccc3N(Cc3cncn3C)C[C@H]2Cc2ccc(OC(=O)NCc3ccccc3)cc2)cc1 | – | > 99500 | – | – | 72.2 | 81 | 338 | 142 | 151 | 231 | > 10000 | 130
11 | CCN(CC)C(=O)Oc1ccc(C[C@@H]2CN(Cc3cncn3C)c3ccc(C#N)cc3CN2S(=O)(=O)c2ccc(OC)cc2)cc1 | 123 | 2020 | – | – | – | 343 | 412 | – | 745 | 75 | > 10000 | 43
12 | COc1ccc(S(=O)(=O)N2Cc3cc(C#N)ccc3N(Cc3cncn3C)C[C@H]2Cc2ccc(-c3cccnc3)cc2)cc1 | 11 | 3630 | – | 4.3 | 353 | 466 | 442 | 413 | 409 | 308 | > 10000 | 399
13 | COc1ccc(S(=O)(=O)N2Cc3cc(-c4ccc(C=O)o4)ccc3N(Cc3cncn3C)C[C@H]2Cc2ccc(O)cc2)cc1 | – | > 99500 | – | 7 | 206 | 120 | – | – | – | – | – | –
14 | COc1ccc(S(=O)(=O)N2Cc3cc(-c4ccc(C#N)o4)ccc3N(Cc3cncn3C)C[C@H]2Cc2ccc(O)cc2)cc1 | < 14 | > 99500 | – | 26.9 | 62.5 | 11 | – | – | 21 | 2 | > 10000 | 18
15 | COc1ccc(S(=O)(=O)N2Cc3cc(-c4ccc(Cl)cc4)ccc3N(Cc3cncn3C)C[C@H]2Cc2ccc(O)cc2)cc1 | 706 | > 99500 | – | 194 | – | – | – | – | – | – | – | –
16 | COc1ccc(S(=O)(=O)N2Cc3cc(-c4ccnc(OC)c4)ccc3N(Cc3cncn3C)C[C@H]2Cc2ccc(O)cc2)cc1 | 5.5 | > 99500 | – | 18.6 | – | – | – | – | – | – | – | –
17 | COc1ccc(S(=O)(=O)N2Cc3cc(-c4ccncc4)ccc3N(Cc3cncn3C)C[C@H]2Cc2ccc(O)cc2)cc1 | < 4 | > 99500 | – | 13.6 | – | – | – | – | – | – | – | –
18 | COc1ccc(S(=O)(=O)N2Cc3cc(-c4cccc(C#N)c4)ccc3N(Cc3cncn3C)C[C@H]2Cc2ccc(O)cc2)cc1 | 22.5 | > 99500 | – | 34.4 | – | – | – | – | – | – | – | –
19 | COc1ccc(S(=O)(=O)N2Cc3cc(C#N)ccc3N(Cc3cncn3C)C[C@H]2Cc2ccc(O)cc2)cc1 | < 4 | > 99500 | – | 5.2 | 1010 | 115 | 315 | 162 | 130 | 172 | – | 100
20 | CCCCOc1ccc(C[C@@H]2CN(Cc3cncn3C)c3ccc(C#N)cc3CN2S(=O)(=O)c2ccc(OC)cc2)cc1 | 156 | > 99500 | – | 10 | 162 | 307 | 216 | 241 | 154 | 264 | 8690 | 165
21 | COc1ccc(S(=O)(=O)N2Cc3cc(C#N)ccc3N(Cc3cncn3C)C[C@H]2Cc2ccc(OCC=C(C)C)cc2)cc1 | 63 | > 99500 | – | 15 | 39 | 43 | 74 | 90 | 59 | 112 | 8030 | 116
22 | COc1ccc(S(=O)(=O)N2Cc3cc(C#N)ccc3N(Cc3cncn3C)C[C@H]2Cc2ccc(OCc3ccccc3)cc2)cc1 | 181 | > 99500 | – | 99.3 | 441 | – | 746 | 756 | 372 | 1050 | > 10000 | 265
23 | COc1ccc(S(=O)(=O)N2Cc3cc(C#N)ccc3N(Cc3cncn3C)C[C@H]2Cc2ccc(OC/C=C(\C)CCC=C(C)C)cc2)cc1 | 23.5 | > 99500 | – | 1010 | 2070 | 278 | 653 | – | – | 1430 | > 10000 | 1380
24 | CCCCCCNC(=O)Oc1ccc(C[C@@H]2CN(Cc3cncn3C)c3ccc(C#N)cc3CN2S(=O)(=O)c2ccc(OC)cc2)cc1 | 15.5 | > 99500 | – | – | 243 | 77.3 | 289 | 228 | – | 355 | – | 233

Second part, led by results:

Row | IC50 [1] [nM] | IC50 [3] [nM] | IC50 [7] [nM] | IC50 [8] [nM] | IC50 [10] [nM] | IC50 [12] [nM] | SMILES | IC50 [2] [nM] | IC50 [4] [nM] | IC50 [5] [nM] | IC50 [6] [nM] | IC50 [9] [nM] | IC50 [11] [nM]
25 | 1550 | > 99500 | – | > 9700 | 616 | 311 | COc1ccc(S(=O)(=O)N2Cc3cc(-c4ccc(C=O)o4)ccc3N(Cc3cncn3C)C[C@H]2Cc2ccc(OC(=O)NCc3ccccc3)cc2)cc1 | – | – | 797 | 443 | > 10000 | 589
26 | 5720 | > 99500 | – | 2430 | – | – | COc1ccc(S(=O)(=O)N2Cc3cc(-c4ccnc(OC)c4)ccc3N(Cc3cncn3C)C[C@H]2Cc2ccc(Nc3ccccc3)cc2)cc1 | – | – | – | – | – | –
27 | 27 | > 99500 | – | 112 | – | – | COc1ccc(S(=O)(=O)N2Cc3cc(N4CCN(C(C)=O)CC4)ccc3N(Cc3cncn3C)C[C@H]2Cc2ccc(O)cc2)cc1 | – | – | – | – | – | –
28 | 2240 | > 99500 | – | > 9700 | – | – | COc1ccc(S(=O)(=O)N2Cc3cc(-c4ccc(C=O)o4)ccc3N(Cc3cncn3C)C[C@H]2Cc2ccc(-c3ccc(Cl)cc3)cc2)cc1 | – | – | – | – | – | –
29 | – | – | – | – | – | 54 | COc1ccc(S(=O)(=O)N2Cc3cc(-c4ccc(C#N)o4)ccc3N(Cc3cncn3C)C[C@H]2Cc2ccc(OS(=O)(=O)C(F)(F)F)cc2)cc1 | – | – | 130 | 71 | > 10000 | 222
30 | 37 | > 99500 | – | 110 | – | – | COc1ccc(S(=O)(=O)N2Cc3cc(-c4ccc(C#N)o4)ccc3N(Cc3cncn3C)C[C@H]2Cc2ccc(-c3cccnc3)cc2)cc1 | – | – | – | – | – | –
31 | 55 | > 99500 | – | 321 | – | 338 | COc1ccc(S(=O)(=O)N2Cc3cc(-c4ccnc(OC)c4)ccc3N(Cc3cncn3C)C[C@H]2Cc2ccc(OC(=O)NCc3ccccc3)cc2)cc1 | – | – | – | – | – | –
32 | 1500 | > 99500 | – | – | 18600 | > 10000 | COc1ccc(S(=O)(=O)N2Cc3cc(C#N)ccc3N(Cc3cncn3C)C[C@H]2Cc2ccc(OS(=O)(=O)C(F)(F)F)cc2)cc1 | 2220 | 3100 | 1960 | – | > 10000 | 92
33 | 185 | > 99500 | – | 172 | – | – | COc1ccc(S(=O)(=O)N2Cc3cc(-c4cc(F)cc(F)c4)ccc3N(Cc3cncn3C)C[C@H]2Cc2ccc(O)cc2)cc1 | – | – | – | – | – | –
34 | 55 | > 99500 | – | 81.7 | – | – | COc1ccc(S(=O)(=O)N2Cc3cc(-c4ccco4)ccc3N(Cc3cncn3C)C[C@H]2Cc2ccc(O)cc2)cc1 | – | – | – | – | – | –
35 | 19 | > 99500 | – | 7 | – | – | COc1ccc(S(=O)(=O)N2Cc3cc(C(=O)NCc4ccccc4)ccc3N(Cc3cncn3C)C[C@H]2Cc2ccc(O)cc2)cc1 | – | – | – | – | – | –
